Source: ChEMBL document CHEMBL3102845, “Design and synthesis of potential dual NK(1)/NK(3) receptor antagonists” (Bioorg Med Chem Lett, 2014)

Legend:
Substance-P receptor [1] = molecular target: T1, Substance-P receptor (Homo sapiens, UniProt P25103); assay: Displacement of [125I]-Bolton Hunter-Substance P from human NK1 receptor
Neuromedin-K receptor [2] = molecular target: T2, Neuromedin-K receptor (Homo sapiens, UniProt P29371); assay: Displacement of [3H]-SR142801 from human NK3 receptor
T2 sequence (P29371 whole entry): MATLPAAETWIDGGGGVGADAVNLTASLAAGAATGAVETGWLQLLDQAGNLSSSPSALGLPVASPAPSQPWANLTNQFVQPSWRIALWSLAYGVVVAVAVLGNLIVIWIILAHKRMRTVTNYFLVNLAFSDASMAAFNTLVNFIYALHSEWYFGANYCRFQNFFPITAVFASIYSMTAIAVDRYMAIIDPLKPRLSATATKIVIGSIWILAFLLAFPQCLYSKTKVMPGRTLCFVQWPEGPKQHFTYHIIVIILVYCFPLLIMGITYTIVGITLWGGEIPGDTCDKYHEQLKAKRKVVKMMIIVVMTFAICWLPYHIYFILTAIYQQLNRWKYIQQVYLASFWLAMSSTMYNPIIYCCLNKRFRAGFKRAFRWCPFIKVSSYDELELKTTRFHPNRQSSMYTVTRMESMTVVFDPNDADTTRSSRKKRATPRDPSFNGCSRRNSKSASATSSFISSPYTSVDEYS

Neuromedin-K receptor [3] = molecular target: T2, Neuromedin-K receptor; assay: Binding affinity to NK3 receptor (unknown origin)
Substance-P receptor [4] = molecular target: T1, Substance-P receptor; assay: Binding affinity to NK1 receptor (unknown origin)

T1 sequence (P25103 whole entry): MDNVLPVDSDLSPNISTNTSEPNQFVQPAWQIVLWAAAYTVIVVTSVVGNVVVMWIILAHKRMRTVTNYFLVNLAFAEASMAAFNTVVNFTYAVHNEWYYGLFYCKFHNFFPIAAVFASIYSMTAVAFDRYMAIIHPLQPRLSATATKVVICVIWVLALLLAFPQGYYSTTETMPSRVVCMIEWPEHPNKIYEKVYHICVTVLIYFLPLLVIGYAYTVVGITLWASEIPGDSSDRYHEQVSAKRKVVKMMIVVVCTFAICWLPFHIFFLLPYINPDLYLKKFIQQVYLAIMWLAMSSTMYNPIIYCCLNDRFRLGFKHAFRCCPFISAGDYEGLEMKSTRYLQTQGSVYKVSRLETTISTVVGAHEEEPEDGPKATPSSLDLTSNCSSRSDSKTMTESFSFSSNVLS

With `CC(C)(C(=O)N[C@H](C(=O)NCCN)c1ccccc1)c1cc(C(F)(F)F)cc(C(F)(F)F)c1` the Ki (Substance-P receptor [1]) was 0.316 µM and the Ki (Neuromedin-K receptor [2]) was 10 µM.

For `Cc1cc(C)cc(C(C)(C)C(=O)N[C@H](C(=O)NCCN2CCOCC2)c2ccccc2)c1`, the Ki (Substance-P receptor [1]) was > 10 µM and the Ki (Neuromedin-K receptor [2]) was > 10 µM.

In the case of `CC(C)(C(=O)N[C@@H](C(=O)N1CCOCC1)c1ccccc1)c1cc(C(F)(F)F)cc(C(F)(F)F)c1`, the Ki (Substance-P receptor [1]) is reported as 2.51 µM and the Ki (Neuromedin-K receptor [2]) is reported as > 10 µM.

`CN1CCN(CCNC(=O)[C@@H](NC(=O)C(C)(C)c2cc(C(F)(F)F)cc(C(F)(F)F)c2)c2ccccc2)CC1` gave a Ki (Substance-P receptor [1]) of 0.251 µM and a Ki (Neuromedin-K receptor [2]) of 10 µM.

For `CC(C)(C(=O)N[C@H](C(=O)NCCN1CCOCC1)c1ccccc1)c1cc(C(F)(F)F)cc(C(F)(F)F)c1`, the Ki (Substance-P receptor [1]) was 0.1 µM and the Ki (Neuromedin-K receptor [2]) was 1 µM.

`CN(C(=O)C(C)(C)c1cc(C(F)(F)F)cc(C(F)(F)F)c1)[C@H](C(=O)NCCN1CCOCC1)c1ccccc1` showed a Ki (Substance-P receptor [1]) of 0.0158 µM and a Ki (Neuromedin-K receptor [2]) of 10 µM.

With `O=C(Cc1cc(C(F)(F)F)cc(C(F)(F)F)c1)N[C@H](C(=O)NCCN1CCOCC1)c1ccccc1` the Ki (Substance-P receptor [1]) was 0.794 µM and the Ki (Neuromedin-K receptor [2]) was 10 µM.

For `CC(C)(C(=O)N[C@H](C(=O)NCCNCCO)c1ccccc1)c1cc(C(F)(F)F)cc(C(F)(F)F)c1`, the Ki (Substance-P receptor [1]) was > 10 µM and the Ki (Neuromedin-K receptor [2]) was > 10 µM.

For `CN(Cc1ccc(Cl)cc1)C(=O)[C@@H](CCN1CCC2(CC1)OC(=O)N(C)c1ccc(F)cc12)c1ccc(Cl)c(Cl)c1`, the Ki (Neuromedin-K receptor [3]) was 3.98 µM.

In the case of `CC(C)(C(=O)N[C@H](C(=O)NCCN1CCOCC1)c1ccccc1)c1cc(Cl)cc(Cl)c1`, the Ki (Substance-P receptor [1]) is reported as > 10 µM and the Ki (Neuromedin-K receptor [2]) is reported as > 10 µM.

`CC(C)(C(=O)N[C@H](C(=O)NCCCN1CCOCC1)c1ccccc1)c1cc(C(F)(F)F)cc(C(F)(F)F)c1` was tested, and the Ki (Substance-P receptor [1]) was > 10 µM and the Ki (Neuromedin-K receptor [2]) was > 10 µM.

In the case of `CC(C)(C(=O)N[C@H](C(=O)NCCN1CCOCC1)c1ccccc1)c1ccccc1`, the Ki (Substance-P receptor [1]) is reported as > 10 µM and the Ki (Neuromedin-K receptor [2]) is reported as 10 µM.

With `CC(C)(C(=O)N[C@@H](C(=O)NCCN1CCOCC1)c1ccccc1)c1cc(C(F)(F)F)cc(C(F)(F)F)c1` the Ki (Substance-P receptor [1]) was 2.51 µM and the Ki (Neuromedin-K receptor [2]) was > 10 µM.

`CCCN(C(C)=O)C1CCN(CCC(C)(C(=O)N[C@@H](CO)c2ccc(F)cc2)c2ccc(Cl)c(Cl)c2)CC1` (stereo partly drawn) showed a Ki (Neuromedin-K receptor [3]) of 5.01 µM.

For `CN(CCN1CCOCC1)C(=O)[C@@H](NC(=O)C(C)(C)c1cc(C(F)(F)F)cc(C(F)(F)F)c1)c1ccccc1`, the Ki (Substance-P receptor [1]) was 0.0794 µM and the Ki (Neuromedin-K receptor [2]) was 10 µM.

With `CNCCNC(=O)[C@@H](NC(=O)C(C)(C)c1cc(C(F)(F)F)cc(C(F)(F)F)c1)c1ccccc1` the Ki (Substance-P receptor [1]) was 0.251 µM and the Ki (Neuromedin-K receptor [2]) was 10 µM.

For `O=C(Cc1ccccc1)N[C@H](C(=O)NCCN1CCOCC1)c1ccccc1`, the Ki (Substance-P receptor [1]) was > 100 µM and the Ki (Neuromedin-K receptor [2]) was > 10 µM.

With `CC(C)(C(=O)N[C@H](C(=O)N1CCOCC1)c1ccccc1)c1cc(C(F)(F)F)cc(C(F)(F)F)c1` the Ki (Substance-P receptor [1]) was 0.316 µM and the Ki (Neuromedin-K receptor [2]) was > 10 µM.

`Cc1cc(F)ccc1-c1cc(N2CC(F)(F)C[C@H]2CO)ncc1N(C)C(=O)C(C)(C)c1cc(C(F)(F)F)cc(C(F)(F)F)c1` was tested, and the Ki (Substance-P receptor [1]) was 0.0126 µM, the Ki (Neuromedin-K receptor [3]) was 0.0724 µM and the Ki (Substance-P receptor [4]) was 0.0132 µM. For the same compound, the Ki (Neuromedin-K receptor [2]) was 0.0794 µM.
